Results: patent publication US7772241B2, “Variolin derivatives and their use as antitumor agents” (Pharma Mar S.A., priority 2001, dated 2010)
Where two headings read alike, the source gives them in different places.

Key:
[1] = system: LNCaP; assay: Inhibition of cells growth by colorimetric (SRB) assay, LNCaP; conditions: for CC50: read-out: LC50 LN-caP
Summary of the method: (§1)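 Human tumour cells seeded at 5×10^3/well in RPMI 1640 10% FBS, attached 18 h, then exposed 48 h to samples at 10 to 10^−8 μg/ml in DMSO/EtOH/PBS (0.5:0.5:99). Growth read by SRB staining after TCA fixation, OD 490 nm, triplicate wells; GI, TGI and LC derived.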

[2] = system: PANC-1; assay: Inhibition of cells growth by colorimetric (SRB) assay, PANC-1; conditions: for GI50: read-out: GI50 PANC-1
Summary of the method: as §1

[3] = system: SK-OV-3; assay: Inhibition of cells growth by colorimetric (SRB) assay, SK-OV-3
Summary of the method: as §1

[4] = system: LoVo-Dox; assay: Inhibition of cells growth by colorimetric (SRB) assay, LoVo-Dox
Summary of the method: as §1

[5] = system: IGROV-ET; assay: Inhibition of cells growth by colorimetric (SRB) assay, IGROV-ET
Summary of the method: as §1

[6] = system: DU-145; assay: Inhibition of cells growth by colorimetric (SRB) assay, DU-145; conditions: for GI50: read-out: GI50 DU-145
Summary of the method: as §1

[7] = system: K-562; assay: Inhibition of cells growth by colorimetric (SRB) assay, K-562; conditions: for GI50: read-out: GI50 K-562
Summary of the method: as §1

[8] = system: IGROV-1; assay: Inhibition of cells growth by colorimetric (SRB) assay, IGROV-1; conditions: for CC50: read-out: LC50 IGROV
Summary of the method: as §1

[9] = system: HMEC1; assay: Inhibition of cells growth by colorimetric (SRB) assay, HMEC1; conditions: for TGI H-MEC-1: in M (unit assumed); for CC50: read-out: LC50 H-MEC-1
Description: The finality of these assays is to interrupt the growth of a “in vitro” tumor cell culture by means a continued exhibition of the cells to the sample to be testing.
This form of the assay employs 96 well cell culture microplates of 9 mm diameter (Faircloth, 1988; Mosmann, 1983). Most of the cell lines are obtained from American Type Culture Collection (ATCC) derived from different human cancer types.
Cells are maintained in RPMI 1640 10% FBS, supplemented with 0.1 g/l penicillin and 0.1 g/l streptomycin sulphate and then incubated at 37° C., 5% CO2 and 98% humidity. For the experiments, cells were harvested from subconfluent cultures using trypsin and resuspended in fresh medium before plating.
Cells are seeded in 96 well microtiter plates, at 5×10^3 cells per well in aliquots of 195 μl medium, and they are allowed to attach to the plate surface by growing in drug free medium for 18 hours. Afterward, samples are added in aliquots of 5 μl in a ranging from 10 to 10^−8 μg/ml, dissolved in DMSO/EtOH/PBS (0.5:0.5:99). After 48 hours exposure, the antitumor effect are measured by the SRB methodology: cells are fixed by adding 50 μl of cold 50% (wt/vol) trichloroacetic acid (TCA) and incubating for 60 minutes at 4° C. Plates are washed with deionized water and dried. One hundred μl of SRB solution (0.4% wt/vol in 1% acetic acid) is added to each microtiter well and incubated for 10 minutes at room temperature. Unbound SRB is removed by washing with 1% acetic acid. Plates are air dried and bound stain is solubilized with Tris buffer. Optical densities are read on a automated spectrophotometric plate reader at a single wavelength of 490 nm.
The values for mean +/−SD of data from triplicate wells are calculated. Some parameters for cellular responses can be calculated: GI=growth inhibition, TGI=total growth inhibition (cytostatic effect) and LC=cell killing (cytotoxic effect).

[10] = system: LoVo; assay: Inhibition of cells growth by colorimetric (SRB) assay, LoVo; conditions: for CC50: read-out: LC50 LOVO
Summary of the method: as §1

[11] = system: SK-BR-3; assay: Inhibition of cells growth by colorimetric (SRB) assay, SK-BR-3; conditions: SRB assay, 48 hours exposure; for GI50: read-out: GI50 SK-BR-3; for CC50: read-out: LC50 SK-BR-3
Summary of the method: as §1

[12] = system: HT-29; assay: Inhibition of cells growth by colorimetric (SRB) assay, HT-29
Summary of the method: as §1

[13] = system: SK-MEL-28; assay: Inhibition of cells growth by colorimetric (SRB) assay, SK-MEL-28
Summary of the method: as §1

[14] = system: A-549; assay: Inhibition of cells growth by colorimetric (SRB) assay, A-549; conditions: for GI50: read-out: GI50 A-549
Summary of the method: as §1

In the case of `Cc1ccc2c(-c3ccnc(N)n3)c3ccnc(N)n3c2n1` [Compound 24], the “TGI LN-caP” value ([1]; SRB assay, 48 hours exposure) is reported as 7.24E−07, the GI50 ([1]; read-out: GI50 LN-caP, SRB assay, 48 hours exposure) is reported as 174 nM and the CC50 ([1]; SRB assay, 48 hours exposure) is reported as at least 34300 nM. The “TGI PANC-1” value ([2]; SRB assay, 48 hours exposure) was 2.06E−05, the GI50 ([2]; SRB assay, 48 hours exposure) was 3880 nM and the CC50 ([2]; read-out: LC50 PANC-1, SRB assay, 48 hours exposure) was at least 34300 nM. The “TGI SKOV-3” value ([3]; SRB assay, 48 hours exposure) was 1.00E−05, the GI50 ([3]; read-out: GI50 SKOV-3, SRB assay, 48 hours exposure) was 1390 nM and the CC50 ([3]; read-out: LC50 SKOV-3, SRB assay, 48 hours exposure) was at least 34300 nM. The “TGI LOVO-DOX” value ([4]; SRB assay, 48 hours exposure) was 3.43E−06, the GI50 ([4]; read-out: GI50 LOVO-DOX, SRB assay, 48 hours exposure) was 642 nM and the CC50 ([4]; read-out: LC50 LOVO-DOX, SRB assay, 48 hours exposure) was at least 34300 nM. For the same molecule, the “TGI IGROV-ET” value ([5]; SRB assay, 48 hours exposure) was 7.11E−06, the GI50 ([5]; read-out: GI50 IGROV-ET, SRB assay, 48 hours exposure) was 1010 nM and the CC50 ([5]; read-out: LC50 IGROV-ET, SRB assay, 48 hours exposure) was at least 34300 nM. The CC50 ([6]; Homo sapiens, DU-145, 48 h, read-out: LC50 DU-145, SRB assay, 48 hours exposure) was 15600 nM, the “TGI DU-145” value ([6]; SRB assay, 48 hours exposure) was 1.91E−06 and the GI50 ([6]; SRB assay, 48 hours exposure) was 831 nM. The “TGI K-562” value ([7]; SRB assay, 48 hours exposure) was 7.35E−06, the GI50 ([7]; SRB assay, 48 hours exposure) was 1620 nM and the CC50 ([7]; read-out: LC50 K-562, SRB assay, 48 hours exposure) was 22200 nM. The “TGI IGROV” value ([8]; SRB assay, 48 hours exposure) was 6.38E−06, the GI50 ([8]; read-out: GI50 IGROV, SRB assay, 48 hours exposure) was 995 nM and the CC50 ([8]; SRB assay, 48 hours exposure) was 23000 nM. The “TGI H-MEC-1” value ([9]; SRB assay, 48 hours exposure) was 7.86E−07, the GI50 ([9]; read-out: GI50 H-MEC-1, SRB assay, 48 hours exposure) was 247 nM and the CC50 ([9]; SRB assay, 48 hours exposure) was 2670 nM. For the same molecule, the “TGI LOVO” value ([10]; SRB assay, 48 hours exposure) was 1.22E−06, the GI50 ([10]; read-out: GI50 LOVO, SRB assay, 48 hours exposure) was 325 nM and the CC50 ([10]; SRB assay, 48 hours exposure) was over 34300 nM. The “TGI SK-BR-3” value [11] was 4.77E−06, the GI50 [11] was 1040 nM and the CC50 [11] was 10400 nM. For the same molecule, the “TGI HT-29” value ([12]; SRB assay, 48 hours exposure) was 3.43E−05, the GI50 ([12]; read-out: GI50 HT-29, SRB assay, 48 hours exposure) was 16400 nM and the CC50 ([12]; read-out: LC50 HT-29, SRB assay, 48 hours exposure) was at least 34300 nM. The “TGI MEL-28” value ([13]; SRB assay, 48 hours exposure) was 3.43E−06, the GI50 ([13]; read-out: GI50 MEL-28, SRB assay, 48 hours exposure) was 721 nM and the CC50 ([13]; read-out: LC50 MEL-28, SRB assay, 48 hours exposure) was 12600 nM. For the same molecule, the “TGI A-549” value ([14]; SRB assay, 48 hours exposure) was 6.87E−06, the GI50 ([14]; SRB assay, 48 hours exposure) was 1380 nM and the CC50 ([14]; read-out: LC50 A-549, SRB assay, 48 hours exposure) was 17500 nM.

`Cl.Nc1nccc(-c2c3cc4ccccc4nc3n3c(N)nccc23)n1` [Compound 42] was tested, and the GI50 ([1]; Homo sapiens, LNCaP, 48 h, read-out: GI50 LN-caP, SRB assay, 48 hours exposure) was 432 nM, the “TGI LN-caP” value ([1]; SRB assay, 48 hours exposure) was 1.25E−06 and the CC50 ([1]; SRB assay, 48 hours exposure) was 5970 nM. The CC50 ([2]; Homo sapiens, PANC-1, 48 h, read-out: LC50 PANC-1, SRB assay, 48 hours exposure) was 25000 nM, the “TGI PANC-1” value ([2]; SRB assay, 48 hours exposure) was 2.50E−05 and the GI50 ([2]; SRB assay, 48 hours exposure) was 8870 nM. For the same molecule, the GI50 ([3]; Homo sapiens, SK-OV-3, 48 h, read-out: GI50 SKOV-3, SRB assay, 48 hours exposure) was 1080 nM, the CC50 ([3]; Homo sapiens, SK-OV-3, 48 h, read-out: LC50 SKOV-3, SRB assay, 48 hours exposure) was 21500 nM and the “TGI SKOV-3” value ([3]; SRB assay, 48 hours exposure) was 5.32E−06. The GI50 ([4]; Homo sapiens, 48 h, read-out: GI50 LOVO-DOX, SRB assay, 48 hours exposure) was 954 nM, the CC50 ([4]; Homo sapiens, 48 h, read-out: LC50 LOVO-DOX, SRB assay, 48 hours exposure) was 15500 nM and the “TGI LOVO-DOX” value ([4]; SRB assay, 48 hours exposure) was 3.62E−06. For the same molecule, the GI50 ([5]; Homo sapiens, 48 h, read-out: GI50 IGROV-ET, SRB assay, 48 hours exposure) was 1700 nM, the CC50 ([5]; Homo sapiens, 48 h, read-out: LC50 IGROV-ET, SRB assay, 48 hours exposure) was 15400 nM and the “TGI IGROV-ET” value ([5]; SRB assay, 48 hours exposure) was 5.45E−06. For the same molecule, the “TGI DU-145” value ([6]; SRB assay, 48 hours exposure) was 6.10E−06, the GI50 ([6]; SRB assay, 48 hours exposure) was 1480 nM and the CC50 ([6]; read-out: LC50 DU-145, SRB assay, 48 hours exposure) was 21100 nM. For the same molecule, the CC50 ([7]; Homo sapiens, K562, 48 h, read-out: LC50 K-562, SRB assay, 48 hours exposure) was 14600 nM, the “TGI K-562” value ([7]; SRB assay, 48 hours exposure) was 7.69E−06 and the GI50 ([7]; SRB assay, 48 hours exposure) was 4070 nM. The GI50 ([8]; Homo sapiens, IGROV-1, 48 h, read-out: GI50 IGROV, SRB assay, 48 hours exposure) was 1560 nM, the “TGI IGROV” value ([8]; SRB assay, 48 hours exposure) was 5.15E−06 and the CC50 ([8]; SRB assay, 48 hours exposure) was 13000 nM. The GI50 ([9]; Homo sapiens, HMEC-1, 48 h, read-out: GI50 H-MEC-1, SRB assay, 48 hours exposure) was 114 nM, the “TGI H-MEC-1” value ([9]; SRB assay, 48 hours exposure) was 5.32E−07 and the CC50 ([9]; SRB assay, 48 hours exposure) was 1860 nM. For the same molecule, the GI50 ([10]; Homo sapiens, LoVo, 48 h, read-out: GI50 LOVO, SRB assay, 48 hours exposure) was 884 nM, the “TGI LOVO” value ([10]; SRB assay, 48 hours exposure) was 5.42E−06 and the CC50 ([10]; SRB assay, 48 hours exposure) was 25000 nM. For the same molecule, the “TGI SK-BR-3” value [11] was 3.22E−07, the GI50 [11] was 67.7 nM and the CC50 [11] was 1670 nM. For the same molecule, the GI50 ([12]; Homo sapiens, HT-29, 48 h, read-out: GI50 HT-29, SRB assay, 48 hours exposure) was 1990 nM, the CC50 ([12]; Homo sapiens, HT-29, 48 h, read-out: LC50 HT-29, SRB assay, 48 hours exposure) was 25000 nM and the “TGI HT-29” value ([12]; SRB assay, 48 hours exposure) was 2.50E−05. For the same molecule, the GI50 ([13]; Homo sapiens, SK-MEL-28, 48 h, read-out: GI50 MEL-28, SRB assay, 48 hours exposure) was 2560 nM, the CC50 ([13]; Homo sapiens, SK-MEL-28, 48 h, read-out: LC50 MEL-28, SRB assay, 48 hours exposure) was 25000 nM and the “TGI MEL-28” value ([13]; SRB assay, 48 hours exposure) was 2.50E−05. The CC50 ([14]; Homo sapiens, A549, 48 h, read-out: LC50 A-549, SRB assay, 48 hours exposure) was 14300 nM, the “TGI A-549” value ([14]; SRB assay, 48 hours exposure) was 2.26E−06 and the GI50 ([14]; SRB assay, 48 hours exposure) was 135 nM.
